Source: patent US4127722A, “Benzhydrylsulphinyl derivatives” (Laboratoire L. Lafon, priority 1975, dated 1978)
Entries after “also recorded” stand apart in the source; their conditions may differ. Where a name gives a salt, the structure may show the parent alone.

Key:
[1] = test system: carrageenin oedema; test: Carrageenin oedema; format: in vivo
[2] = test system: central nervous system; test: Pharmacological tests: action on the central nervous system, overall profile; format: in vivo
Description: The results of the pharmacological tests which were carried out have been summarised below.

[3] = test system: hypothermia, trembling and peripheral cholinergic symptoms brought about by oxotremorine; test: Interaction with oxotremorine; format: in vivo, mice
Description: Mice (6 per dose) are given an intraperitoneal injection of 0.5 mg/kg of oxotremorine 30 minutes after the administration of CRL 40,028.

[4] = test system: stereotype behaviour caused by apomorphine; test: Interaction with apomorphine; format: in vivo, rats
Description: Batches of 6 rats are given CRL 40,028 30 minutes after the subcutaneous injection of 0.5 mg/kg of apomorphine.

[5] = test system: stereotype behaviour induced by amphetamine; test: Interaction with amphetamine; format: in vivo, rats
Description: Amphetamine (2 mg/kg, given intraperitoneally) is injected 30 minutes after the administration of CRL 40,028 (6 rats/dose).

[6] = Toxicity, gastric administration, mice; details: mouse, in vivo, po
[7] = test system: spontaneous motility; test: Spontaneous motility (actimetry); format: in vivo, mice; details: for % relative to the control animals / % variation: rays crossed
Description: CRL 40,028 increases the motor activity of the animals from a dose of 16 mg/kg onwards. As this effect is representative of the activity of CRL 40,028, attempts have been made to obtain its kinetics more precisely. […]

[8] = test system: motor activity after anoxia; test: Motor recovery after hypoxia aggression; format: in vivo, mice
[9] = test system: residual motility; test: Residual motility; format: in vivo, mice; details: animals becoming accustomed to the chamber
[10] = test system: passes which entail pain; test: Four plate test; format: in vivo, mice; details: mice
Description: (§1) The test is carried out on batches of 20 mice, 30 minutes after the administration of CRL 40,028.

[11] = test system: mice; test: General behaviour, mice; format: in vivo; details: at all the doses studied (toxicity test)
[12] = Solubility in water
[13] = test system: groups of mice; test: Group toxicity; details: in words, comparison with amphetamine-type compounds
[14] = test system: hypothermia and ptosis produced by reserpine; test: Interaction with reserpine; format: in vivo, mice
Description: Batches of 6 mice are given an intraperitoneal injection of reserpine (2.5 mg/kg) 4 hours before the administration of CRL 40,028.

[15] = General behaviour / psychopharmacological spectrum (species not stated); format: in vivo
[16] = test system: mice; test: Toxicity, intraperitoneal administration, mice; format: in vivo; details: i.p., 256 mg/kg, 512 mg/kg and 1,024 mg/kg
[17] = Toxicity, intraperitoneal administration, mice; format: in vivo; details: mouse, in vivo, ip, intraperitoneal administration
[18] = test system: convulsive effects of the electric shock; test: Electric shock; format: in vivo, mice
Description: as §1

[O-][S+](CCC1=NCCN1)C(c1ccccc1)c1ccccc1 (stereo not shown) [CRL 40,066, 2-(2-Benzhydrylsulphinyl-ether)-imidazoline hydrochloride]
anti-oedema effect [1]: an anti-oedema effect | action on the central nervous system ([2]; in words): an effect on the central nervous system

O=C(C[S+]([O-])C(c1ccccc1)c1ccccc1)NO (stereo not shown) [CRL 40,028, benzhydrylsulphinylacetohydroxamic acid]
Anti-oxotremorine action (peripheral) ([3]; Table IV, graded symbols): 0 | effect on hypothermic effect of oxotremorine ([3]; mice, 64 mg/kg): not | effect on hypothermic effect of oxotremorine ([3]; mice, 256, 16 and 4 mg/kg): moderately opposes the hypothermic effect of oxotremorine | effect on trembling brought about by oxotremorine ([3]; mice, at all the doses): moderately reduces | effect on peripheral cholinergic symptoms (salivation, lachrymation, defaecation) ([3]; mice, oxotremorine 0.5 mg/kg i.p.): does not alter the increase in salivation, lachrymation and defaecation | Boosting action on apomorphine ([4]; Table IV, graded symbols): 0 | boosting of the effect of apomorphine ([4]; in words, comparison with amphetamine / caffeine): absence of boosting of the effect of apomorphine | activity on the stereotype behaviour caused by apomorphine ([4]; rats, apomorphine 0.5 mg/kg s.c.): does not exert any activity | Boosting action on amphetamine ([5]; Table IV, graded symbols): 0 | boosting of the effect of amphetamine ([5]; in words): does not boost the action of amphetamine; also recorded: absence of boosting | effect on stereotype behaviour induced by amphetamine ([5]; rats, amphetamine 2 mg/kg i.p.): does not produce an overall change in the stereotype behaviour induced by amphetamine | LD50 [6]: 1950 mg/kg | minimal effective dose ([7]; Mus musculus, spontaneous motility, read-out: dose from which motor activity is increased): ≥ 16 mg/kg | time in which hypermotility appears ([7]; mice, 64 mg/kg): less than 30 minutes | time in which hypermotility disappears ([7]; mice, 64 mg/kg): 4 h | time of maximum hypermotility ([7]; mice, 64 mg/kg): one | Number of rays crossed in 30 minutes ([7]; mice, 64 mg/kg, - 30 mins): 311 | Number of rays crossed in 30 minutes ([7]; mice, 64 mg/kg, - 1 hr): 424 | Number of rays crossed in 30 minutes ([7]; mice, 64 mg/kg, - 2 hrs): 376 | Number of rays crossed in 30 minutes ([7]; mice, 64 mg/kg, - 4 hrs): 234 | % relative to the control animals ([7]; mice, 64 mg/kg, - 30 mins): 155% | % variation ([7]; mice, 64 mg/kg, - 30 mins): +55% | % relative to the control animals ([7]; mice, 64 mg/kg, - 1 hr): 212% | % variation ([7]; mice, 64 mg/kg, - 1 hr): +112% | % relative to the control animals ([7]; mice, 64 mg/kg, - 2 hrs): 188% | % variation ([7]; mice, 64 mg/kg, - 2 hrs): +88% | % relative to the control animals ([7]; mice, 64 mg/kg, - 4 hrs): 117% | % variation ([7]; mice, 64 mg/kg, - 4 hrs): +17% | aggravation of the effects of hypoxia ([8]; comparison with caffeine): absence of an aggravation | motor activity after anoxia ([8]; mice, 512, 128 and 32 mg/kg, vs control animals): markedly greater motor activity than that of the control animals | effect on residual motility [9]: stimulating effect | number of passes which entail pain ([10]; 4.1 mg/kg): a modest decrease in the number of such passes | number of passes which entail pain ([10]; 256 and 64 mg/kg): an increase in the number of passes which entail pain | decrease in motility ([10]; at no dose): At no dose does CRL 40,028 bring about a major decrease in motility | excitation of the animal [11]: excitation of the animal was observed | solubility [12]: < 1000 µg/mL | toxicity in the groups of mice [13]: virtual absence of specific (?) toxicity | psychostimulant profile ([2]; comparison with amphetamine and caffeine): a psychostimulant which comes closer to caffeine | Anti-reserpine action (ptosis) ([14]; Table IV, graded symbols): 0 | anti-reserpine effect ([14]; in words): absence of a marked antagonism to reserpine | hypothermia due to reserpine ([14]; in words): absence of a marked antagonism to hypothermia brought about by reserpine | effect on hypothermic effect of reserpine ([14]; mice, 256 and 64 mg/kg, reserpine 2.5 mg/kg i.p.): partially counteracts the hypothermic effect of reserpine | effect on ptosis produced by reserpine ([14]; mice, reserpine 2.5 mg/kg i.p.): does not resolve the palpebral ptosis | stereotypies ([15]; Table IV, graded symbols): 0 | stimulant properties (overall) ([15]; animal psychopharmacology): stimulant properties, namely causing excitation and hyper-reactivity, and hypermotility | stereotypies ([15]; in words, comparison with amphetamine-type compounds): absence of stereotypies | mortality [16]: no mortality was observed | LD50 [17]: ≤ 2050 mg/kg | aggravation of the effects of electric shock ([18]; comparison with caffeine): absence of an aggravation | antagonism against convulsive effects of the electric shock ([18]; mice, only at 256 mg/kg): a very moderate antagonism
